# Assay results published in publication PMC2765055 (Bioorganic & medicinal chemistry, 2009).
# pEC50: −log10 of the molar value. “Also recorded” adds a separate entry of the source. Where two headings read alike, the source gives them in different places.
# How the values were obtained:
# EBV [1] = test: EBV DNA hybridization assay in Akata cells; format: cell-based, Epstein-Barr virus
# [2] = Cytotoxicity, EBV/Akata column; format: cell-based; details: human, Akata cells
# HFF cells [3] = details: read-out: CC50 HCMV/HFF Towne; visual cytotoxicity of HFF; cited from earlier work
# HCMV AD169 strain = details: read-out: EC50 HCMV/HFF AD169, plaque reduction; cited from earlier work
# HFF cells [4] = details: neutral red uptake, cited from earlier work
# MEF = details: read-out: CC50 MCMV/MEF; cited from earlier work
# EBV [5] = details: read-out: EC50 EBV/Akata; DNA hybridization assay; cited from earlier work
# HSV-1 [6] = details: read-out: EC50 HSV-1/BSC-1; ELISA in BSC-1 cells; cited from earlier work
# KB cells = details: read-out: CC50 HSV-1/BSC-1; replicating KB cells; cited from earlier work
# HSV-1 [7] = details: read-out: EC50 HSV-1/HFF; CPE assay; cited from earlier work
# HSV-2 [8] = details: read-out: EC50 HSV-2/HFF; CPE assay; cited from earlier work
# VZV [9] = details: cited from earlier work; for pEC50: read-out: EC50 VZV/HFF, CPE assay
# EBV [10] = details: read-out: EC50 EBV; Daudi cells, viral capsid antigen (VCA) assay; cited from earlier work
# HSV-1 [11] = details: read-out: EC50 HSV-1/BSC-1; plaque reduction in BSC-1 cells; cited from earlier work
# hepatitis B virus (HBV) [12] = details: cited from earlier work
# [13] = Cytotoxicity by neutral red uptake; format: cell-based; details: human, HFF cells
# HFF cells [14] = test: Cytotoxicity by neutral red uptake; format: cell-based; details: read-out: CC50 HSV-1/HFF; neutral red uptake, HSV-1/HFF column
# [15] = tested on: HCMV Towne strains with mutations in UL97; test: HCMV Towne strains with UL97 mutations; format: cell-based, human cytomegalovirus; details: strains E8 and 2696r
# [16] = Visual cytotoxicity of HFF's in cells unaffected by virus; format: cell-based; details: human, HFF cells (not affected by virus)
# [17] = Cytotoxicity in replicating KB cells; format: cell-based; details: human
# [18] = tested on: HCMV, MCMV, HSV-1, HSV-2, VZV, EBV, HBV, HCV; test: Antiviral panel, all tested viruses; format: cell-based
# VZV [19] = test: VZV CPE assay in HFF; format: cell-based, varicella zoster virus
# hepatitis B virus (HBV) [20] = test: HBV antiviral test; format: cell-based
# hepatitis C virus (HCV) = test: HCV antiviral test; format: cell-based
# HSV-1 [21] = test: HSV-1 CPE inhibition assay in HFF; format: cell-based, herpes simplex virus type 1; details: Human alphaherpesvirus 1, read-out: EC50 HSV-1/HFF
# HSV-2 [22] = test: HSV-2 CPE inhibition assay in HFF; format: cell-based, herpes simplex virus type 2; details: Human alphaherpesvirus 2, read-out: EC50 HSV-2/HFF
# [23] = Cytotoxicity, MCMV/MEF column; format: cell-based; details: mouse, MEF cells
# [24] = read-out: CC50 HCMV/HFF AD169, AD169 column
# [25] = read-out: CC50 HSV-1/HFF, HSV-1/HFF column
smiles,measurement,setting,value
"Nc1nc2c(ncn2COCCO)c(=O)[nH]1 [Acyclovir, acyclovir]",pEC50,"EBV [1]; human gammaherpesvirus 4, Akata, read-out: EC50 EBV/Akata",5.08
same,CC50,[2],> 100 µM
"Nc1nc2c(ncn2/C=C2/CC2(CO)CO)c(=O)[nH]1 [Compound 2b, cyclopropavir]",CC50,HFF cells [3],> 100 µM
same,pEC50,HCMV AD169 strain,6.31
same,CC50,HFF cells [4]; [24],> 380 µM
same,CC50,HFF cells [4]; [25],> 380 µM
same,CC50,MEF,> 380 µM
same,pEC50,EBV [5],6.66
same,pEC50,HSV-1 [6],< 4.00
same,CC50,KB cells,> 100 µM
same,pEC50,HSV-1 [7],< 3.42
same,pEC50,HSV-2 [8],< 3.42
same,activity against VZV,VZV [9]; HFF,ineffective
same,pEC50,VZV [9],< 3.42
Nc1nc(O)c2ncn(/C=C3/CC34COP(=O)(O)OC4)c2n1 (stereo not shown) [Compound 10],CC50,HFF cells [3],> 100 µM
same,pEC50,HCMV AD169 strain,5.22
same,CC50,HFF cells [4]; [24],> 301 µM
same,CC50,HFF cells [4]; [25],> 301 µM
same,CC50,MEF,> 301 µM
same,pEC50,EBV [10],6.02
same,pEC50,HSV-1 [11],4.70
same,CC50,KB cells,> 100 µM
same,pEC50,HSV-1 [7],< 3.52
same,pEC50,VZV [9],< 3.52
same,activity against HBV,hepatitis B virus (HBV) [12],effective
"Nc1nc2c(ncn2/C=C2/CC2(CO)CCP(=O)(O)O)c(=O)[nH]1 (stereo not drawn) [Compound 12, (Z)-9-{[2-(Hydroxymethy)l-2-(2-phosphonoethyl)cyclopropylidene]methyl}guanine]",CC50,[13],> 300 µM
same,CC50,HFF cells [14],> 300 µM
same,activity against UL97 mutant strains compared with wild-type Towne HCMV,[15],as active
"Nc1nc2c(ncn2/C=C2\CC2(CO)CCP(=O)(O)O)c(=O)[nH]1 (stereo not drawn) [Compound 13, (E)-9-{[2-(Hydroxymethy)l-2-(2-phosphonoethyl)cyclopropylidene]methyl}guanine]",CC50,[16],> 100 µM
same,CC50,[2],> 100 µM
same,CC50,[17],> 100 µM
same,antiviral activity against all tested viruses,[18],devoid of potency; also recorded: devoid of antiviral activity
Nc1nc2c(ncn2/C=C2/CC23CCP(=O)(O)OC3)c(=O)[nH]1 (stereo not shown) [Compound 14],activity against EBV,EBV [1]; Akata cells,inactive; also recorded: ineffective
same,activity against VZV,VZV [19]; HFF,ineffective
same,activity against HBV,hepatitis B virus (HBV) [20],inactive
same,activity against HCV,hepatitis C virus (HCV),inactive
same,activity against UL97 mutant strains compared with wild-type Towne HCMV,[15],as active
Nc1nc2c(ncn2/C=C2\CC23CCP(=O)(O)OC3)c(=O)[nH]1 (stereo not shown) [Compound 15],CC50,[16],> 100 µM
same,CC50,[13],> 300 µM
same,CC50,HFF cells [14],> 300 µM
same,CC50,[2],> 100 µM
same,CC50,[17],> 100 µM
same,pEC50,HSV-1 [21],< 3.52
same,pEC50,HSV-2 [22],< 3.52
same,pEC50,"VZV [19]; Human alphaherpesvirus 3, read-out: EC50 VZV/HFF",< 3.52
same,antiviral activity against all tested viruses,[18],devoid of potency; also recorded: devoid of antiviral activity
"Nc1nc(O)c2ncn(COC(CO)CO)c2n1 [Ganciclovir, ganciclovir]",CC50,[16],> 100 µM
same,CC50,[13],> 100 µM
same,CC50,[23],> 100 µM
